# Laboratory results from patent publication US20210038577A1, “THIOREDOXIN REDUCTASE INHIBITORS FOR USE IN THE TREATMENT OF CANCER” (Cinda Pharma AB, priority 2018, published 2021).
# How the values were obtained:
# [1] = system: Tregs in TM00098 patient-derived xenografts; experiment: Tumor infiltrated Treg levels by flow cytometry, TM00098 PDX in Hu-CD34-NSG mice; type: in vivo; settings: day 41, both donors, versus vehicle / other treatment
# Protocol: Female NSG mice were implanted with human CD34+ hematopoietic stem cells from multiple donors and the level of human CD45+ cells were measured in the peripheral blood 12 weeks post engraftment. Mice with >25% human CD45+ cells in the peripheral blood were determined to have a humanized immune system (Hu-CD34-NSG™) mice and were enrolled into the study. The Hu-CD34-NSG mice were implanted with TM00098 patient-derived xenografts (PDX) subcutaneously on the right flank. The TM00098 PDX cancer cells originate from a primary tumor of a patient suffering from a grade 3 TNBC invasive ductal carcinoma. […] Tumor volume was measured using a digital caliper two times a week for the duration of the study. […] Cell populations was determined by electronic gating (P1=total leukocytes) on the basis of forward versus side scatter. […] The percentage of Tregs of CD45+ cells were calculated. […] Statistical significance (p<0.05) was determined using a Mann-Whitney test.
# recombinant rat TrxR = target: T1, recombinant rat TrxR (Rattus norvegicus, UniProt O89049); experiment: Sec-dependent TrxR activity (DTNB assay); type: biochemical; settings: binding time of 4 hours (FIG. 1A)
# T1 sequence (O89049 1-499): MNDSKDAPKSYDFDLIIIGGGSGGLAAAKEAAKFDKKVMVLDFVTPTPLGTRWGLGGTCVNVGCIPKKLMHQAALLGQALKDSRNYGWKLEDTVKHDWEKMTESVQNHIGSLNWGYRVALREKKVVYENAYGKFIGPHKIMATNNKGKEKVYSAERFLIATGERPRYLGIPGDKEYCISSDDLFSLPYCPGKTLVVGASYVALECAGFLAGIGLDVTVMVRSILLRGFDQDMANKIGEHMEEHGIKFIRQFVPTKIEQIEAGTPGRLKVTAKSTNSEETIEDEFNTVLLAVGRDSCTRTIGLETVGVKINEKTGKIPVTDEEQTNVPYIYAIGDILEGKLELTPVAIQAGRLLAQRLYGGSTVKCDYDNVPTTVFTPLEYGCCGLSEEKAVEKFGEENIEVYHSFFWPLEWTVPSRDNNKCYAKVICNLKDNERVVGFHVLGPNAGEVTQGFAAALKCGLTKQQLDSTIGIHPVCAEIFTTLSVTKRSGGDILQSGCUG
# Protocol: Sec-dependent TrxR activity was assessed using a 5′-5-dithiobis-(2-nitrobenzoic acid) (DTNB) assay. Multiple concentrations of compounds were incubated for various time points in reaction buffer, consisting of 50 mM Tris pH 7.5 with 2 mM EDTA and 0.1 mg/mL bovine serum albumin, and containing recombinant rat TrxR and 250 μM NADPH. 2.5 mM DTNB was added to each well and TNB^− production was followed at OD412. […] The amino acid sequence of rat TrxR1 is available in Gen Bank, with accession number AAF32362.1.
"potency relative to Iniparib, TrxR C-terminal activity (recombinant rat TrxR) [fold]",Structure (SMILES),levels of tumor infiltrated Tregs (% Tregs of CD45+ cells) [1]
–,"CCCCCCCCS(=O)(=O)c1nc(OC)ccc1[N+](=O)[O-] [OT-1096, 6-methoxy-3-nitro-2-(octylsulfonyl)pyridine]",decreased
1000,"COc1ccc([N+](=O)[O-])c(S(=O)(=O)c2ccc(Cl)cc2)n1 [OT-1000, 2-((4-Chlorophenyl)sulfonyl)-6-methoxy-3-nitropyridine]",–
